ChEMBL document CHEMBL5143568, “Identification of novel xanthine oxidase inhibitors via virtual screening with enhanced characterization of molybdopterin binding groups” (Eur J Med Chem, 2022)

How the values were obtained:
[1] = molecular target: T1, Xanthine dehydrogenase/oxidase (Homo sapiens, UniProt P47989); assay: Inhibition of xanthine oxidase (unknown origin) measured by spectrophotometric analysis
[2] = molecular target: T1, Xanthine dehydrogenase/oxidase; assay: Inhibition of xanthine oxidase (unknown origin) at 10 uM measured by spectrophotometric analysis relative to control
[3] = molecular target: T1, Xanthine dehydrogenase/oxidase; assay: Inhibition of xanthine oxidase (unknown origin) at 0.1 uM measured by spectrophotometric analysis relative to control

T1 sequence (P47989 whole entry): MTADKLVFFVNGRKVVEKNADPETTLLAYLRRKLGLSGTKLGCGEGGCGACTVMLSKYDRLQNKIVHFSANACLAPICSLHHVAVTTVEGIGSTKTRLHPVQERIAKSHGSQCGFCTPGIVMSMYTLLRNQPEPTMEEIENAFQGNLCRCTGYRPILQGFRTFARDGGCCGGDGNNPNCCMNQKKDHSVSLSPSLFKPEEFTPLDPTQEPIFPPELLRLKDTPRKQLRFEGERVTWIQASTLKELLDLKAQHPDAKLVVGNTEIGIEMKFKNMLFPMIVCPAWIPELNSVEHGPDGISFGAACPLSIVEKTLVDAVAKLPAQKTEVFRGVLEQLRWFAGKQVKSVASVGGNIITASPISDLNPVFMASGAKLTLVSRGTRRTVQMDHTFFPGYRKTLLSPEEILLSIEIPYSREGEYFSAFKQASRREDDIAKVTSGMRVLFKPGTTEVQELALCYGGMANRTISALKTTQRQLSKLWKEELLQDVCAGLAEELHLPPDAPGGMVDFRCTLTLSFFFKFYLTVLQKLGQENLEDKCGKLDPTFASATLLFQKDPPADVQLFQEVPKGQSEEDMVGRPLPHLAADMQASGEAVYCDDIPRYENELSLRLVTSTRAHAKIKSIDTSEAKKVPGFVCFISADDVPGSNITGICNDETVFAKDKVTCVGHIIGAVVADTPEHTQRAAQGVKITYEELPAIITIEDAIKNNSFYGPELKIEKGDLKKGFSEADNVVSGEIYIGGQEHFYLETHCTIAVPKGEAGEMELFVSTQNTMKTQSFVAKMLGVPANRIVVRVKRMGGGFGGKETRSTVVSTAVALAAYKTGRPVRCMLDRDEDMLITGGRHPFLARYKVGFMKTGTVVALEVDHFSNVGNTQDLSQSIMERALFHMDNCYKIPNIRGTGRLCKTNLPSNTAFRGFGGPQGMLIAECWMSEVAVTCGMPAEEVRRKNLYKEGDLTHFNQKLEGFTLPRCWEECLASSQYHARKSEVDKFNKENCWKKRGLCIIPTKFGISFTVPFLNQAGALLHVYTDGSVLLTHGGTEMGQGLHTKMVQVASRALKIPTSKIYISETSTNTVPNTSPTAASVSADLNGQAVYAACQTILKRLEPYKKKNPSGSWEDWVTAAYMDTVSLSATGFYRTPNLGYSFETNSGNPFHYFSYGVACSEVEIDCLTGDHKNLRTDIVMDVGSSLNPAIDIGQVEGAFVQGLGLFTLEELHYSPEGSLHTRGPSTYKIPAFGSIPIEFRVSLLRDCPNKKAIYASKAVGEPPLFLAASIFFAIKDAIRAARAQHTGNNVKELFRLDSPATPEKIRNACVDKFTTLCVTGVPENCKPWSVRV

Structure (SMILES)	IC50 [1] [nM]	inhibition at 10 µM [2] [%]	inhibition at 0.1 µM [3] [%]
NC1=NC(=O)/C(=C/c2cccc(F)c2)S1	1020	91.5	
COc1ccc(/C=C2\SC(=S)NC2=O)cc1OC		44.4	
O=C1N=C(S)S/C1=C/c1cc(Cl)ccc1O		< 40	
N=C1SCC(=O)N1c1ncc(OCc2ccc(Cl)cc2Cl)s1		< 40	
Cc1ccc(C(=O)Oc2ccc(Br)cc2/C=C2\SC(N)=NC2=O)cc1		< 40	
Cc1ccc(C(=O)Oc2cccc(/C=C3\SC(N)=NC3=O)c2)cc1		< 40	
NC1=NC(=O)/C(=C/c2cc(Br)cc(Br)c2OCc2ccc(Cl)cc2Cl)S1		< 40	
Cc1ccc(Cl)c2c1NC(=O)/C2=C1/SC(N)=NC1=O		< 40	
COc1cc(/C=C2/SC(S)=NC2=O)ccc1Cc1ccccc1Cl		< 40	
COc1ccc(/C=C2/SC(N)=NC2=O)cc1		< 40	
Cc1nc(-c2ccc(OCC(C)C)c(C#N)c2)sc1C(=O)O [FEBUXOSTAT]	2.92		102
